# According to ChEMBL document CHEMBL4602617, “Discovery and optimization of heteroaryl piperazines as potent and selective PI3Kδ inhibitors” (Bioorg Med Chem Lett, 2020):
# Assays:
# Caspase-9 (Homo sapiens) = Caspase-9 (Homo sapiens) (UniProt P55211); test: Inhibition of recombinant human caspase 9 expressed in Escherichia coli at 10 uM using Ac-LEHD-AFC as substrate after 60 mins by spectrophotometric analysis relative to control
# [1] = target: Mitogen-activated protein kinase 8 (Homo sapiens, UniProt P45983); test: Inhibition of recombinant full length human His-tagged JNK1alpha1 expressed in baculovirus expression system using serine/threonine-4 peptide as substrate incubated for 60 mins in presence of ATP by Z'-LYTE assay
# Sequence of Mitogen-activated protein kinase 8 (P45983 whole entry, the tested form may be a part): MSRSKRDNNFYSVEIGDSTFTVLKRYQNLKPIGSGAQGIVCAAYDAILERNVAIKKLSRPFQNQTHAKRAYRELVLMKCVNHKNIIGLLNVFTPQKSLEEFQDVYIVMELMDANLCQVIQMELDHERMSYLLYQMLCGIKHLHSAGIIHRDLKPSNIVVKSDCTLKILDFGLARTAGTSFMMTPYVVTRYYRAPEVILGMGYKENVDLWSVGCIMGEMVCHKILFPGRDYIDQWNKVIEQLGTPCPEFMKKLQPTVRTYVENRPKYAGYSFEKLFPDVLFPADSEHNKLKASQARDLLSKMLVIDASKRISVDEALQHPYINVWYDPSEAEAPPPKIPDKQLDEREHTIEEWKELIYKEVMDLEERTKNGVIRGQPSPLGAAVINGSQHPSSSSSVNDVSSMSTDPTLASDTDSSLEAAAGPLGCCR
# [2] = target: Hepatocyte growth factor receptor (Homo sapiens, UniProt P08581, M1250T); test: Inhibition of human recombinant His-tagged cMET M1250T mutant cytoplasmic domain expressed in baculovirus expression system using tyrosine 6 peptide as substrate after 60 mins in presence of ATP FRET based Z'-LYTE assay
# Sequence of Hepatocyte growth factor receptor (P08581 25-1390 M1250T limits assumed): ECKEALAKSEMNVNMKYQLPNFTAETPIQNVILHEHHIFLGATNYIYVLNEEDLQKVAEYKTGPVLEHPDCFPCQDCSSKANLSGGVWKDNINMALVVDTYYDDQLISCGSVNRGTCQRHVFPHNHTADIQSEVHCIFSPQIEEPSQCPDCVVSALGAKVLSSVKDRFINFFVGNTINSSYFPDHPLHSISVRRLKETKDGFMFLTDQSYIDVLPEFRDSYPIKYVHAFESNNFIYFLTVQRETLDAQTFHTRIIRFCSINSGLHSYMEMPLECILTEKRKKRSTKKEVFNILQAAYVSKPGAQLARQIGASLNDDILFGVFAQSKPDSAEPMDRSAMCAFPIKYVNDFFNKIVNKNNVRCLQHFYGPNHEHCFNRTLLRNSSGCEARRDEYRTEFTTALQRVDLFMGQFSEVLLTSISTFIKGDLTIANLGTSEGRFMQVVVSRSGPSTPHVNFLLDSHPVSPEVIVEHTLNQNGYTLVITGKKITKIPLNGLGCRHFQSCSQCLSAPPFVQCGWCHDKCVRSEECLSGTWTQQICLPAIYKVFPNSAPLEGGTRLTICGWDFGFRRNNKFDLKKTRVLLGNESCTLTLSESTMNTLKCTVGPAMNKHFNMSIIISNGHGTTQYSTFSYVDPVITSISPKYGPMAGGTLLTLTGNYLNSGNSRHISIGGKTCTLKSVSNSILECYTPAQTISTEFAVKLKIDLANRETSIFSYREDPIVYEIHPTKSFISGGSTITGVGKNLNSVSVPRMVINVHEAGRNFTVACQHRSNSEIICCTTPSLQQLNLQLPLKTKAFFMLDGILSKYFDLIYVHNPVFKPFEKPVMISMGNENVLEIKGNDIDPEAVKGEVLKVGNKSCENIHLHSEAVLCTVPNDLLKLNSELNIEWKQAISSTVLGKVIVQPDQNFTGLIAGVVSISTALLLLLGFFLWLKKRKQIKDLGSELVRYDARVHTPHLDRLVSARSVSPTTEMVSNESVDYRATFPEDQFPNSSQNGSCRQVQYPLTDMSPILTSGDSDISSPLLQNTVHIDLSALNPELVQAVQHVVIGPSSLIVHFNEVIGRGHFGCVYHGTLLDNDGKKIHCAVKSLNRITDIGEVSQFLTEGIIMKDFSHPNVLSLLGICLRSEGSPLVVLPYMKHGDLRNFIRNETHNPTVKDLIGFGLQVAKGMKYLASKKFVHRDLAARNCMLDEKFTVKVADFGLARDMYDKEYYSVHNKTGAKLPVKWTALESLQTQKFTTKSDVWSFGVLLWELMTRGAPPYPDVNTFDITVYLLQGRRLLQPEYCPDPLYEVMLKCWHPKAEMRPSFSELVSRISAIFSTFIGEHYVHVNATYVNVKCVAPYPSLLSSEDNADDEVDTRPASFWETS
# [3] = target: Serine/threonine-protein kinase Nek7 (Homo sapiens, UniProt Q8TDX7); test: Inhibition of NEK7 (unknown origin) by Z'LYTE assay
# Sequence of Serine/threonine-protein kinase Nek7 (Q8TDX7 whole entry): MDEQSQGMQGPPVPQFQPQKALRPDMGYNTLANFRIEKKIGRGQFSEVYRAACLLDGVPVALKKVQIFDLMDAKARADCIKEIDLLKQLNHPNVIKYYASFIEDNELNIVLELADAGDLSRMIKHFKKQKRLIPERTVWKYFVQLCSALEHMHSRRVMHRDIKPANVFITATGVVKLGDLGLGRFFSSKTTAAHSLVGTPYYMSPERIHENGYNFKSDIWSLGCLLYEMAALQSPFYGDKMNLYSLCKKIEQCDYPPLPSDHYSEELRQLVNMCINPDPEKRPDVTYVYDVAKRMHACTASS
# [4] = target: MAP kinase-interacting serine/threonine-protein kinase 1 (Homo sapiens, UniProt Q9BUB5); test: Inhibition of recombinant full length human GST-tagged MKNK1 expressed in insect cells using serine/threonine-7 peptide as substrate incubated for 60 mins in presence of ATP by Z'-LYTE assay
# Sequence of MAP kinase-interacting serine/threonine-protein kinase 1 (Q9BUB5 whole entry, the tested form may be a part): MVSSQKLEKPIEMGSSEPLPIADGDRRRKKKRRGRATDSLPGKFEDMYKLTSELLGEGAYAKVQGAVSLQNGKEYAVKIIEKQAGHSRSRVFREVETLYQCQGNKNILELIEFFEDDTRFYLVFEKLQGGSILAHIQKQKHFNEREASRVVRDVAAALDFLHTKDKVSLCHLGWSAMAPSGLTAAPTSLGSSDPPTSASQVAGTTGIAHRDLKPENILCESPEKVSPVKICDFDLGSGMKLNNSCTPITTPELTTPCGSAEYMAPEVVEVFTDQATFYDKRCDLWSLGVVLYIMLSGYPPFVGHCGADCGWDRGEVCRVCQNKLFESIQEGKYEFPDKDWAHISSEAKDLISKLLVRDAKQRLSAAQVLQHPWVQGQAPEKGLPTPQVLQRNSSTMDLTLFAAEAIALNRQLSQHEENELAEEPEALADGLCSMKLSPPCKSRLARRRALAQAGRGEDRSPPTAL
# [5] = target: Fibroblast growth factor receptor 3 (Homo sapiens, UniProt P22607, K650E); test: Inhibition of recombinant N-terminal His-tagged human FGFR3 K650E mutant (398 to 806 residues) cytoplasmic domain expressed in baculovirus expression system using Tyr 04 peptide as substrate after 1 hr in presence of ATP by Z'-LYTE assay
# [6] = target: Serine/threonine-protein kinase Sgk2 (Homo sapiens, UniProt Q9HBY8); test: Inhibition of recombinant human GST-tagged SGK2 catalytic domain (54 to 427 residues) expressed in baculovirus expression system using serine/threonine-6 peptide as substrate incubated for 60 mins in presence of ATP by Z'-LYTE assay
# Sequence of Serine/threonine-protein kinase Sgk2 (Q9HBY8 whole entry, the tested form may be a part): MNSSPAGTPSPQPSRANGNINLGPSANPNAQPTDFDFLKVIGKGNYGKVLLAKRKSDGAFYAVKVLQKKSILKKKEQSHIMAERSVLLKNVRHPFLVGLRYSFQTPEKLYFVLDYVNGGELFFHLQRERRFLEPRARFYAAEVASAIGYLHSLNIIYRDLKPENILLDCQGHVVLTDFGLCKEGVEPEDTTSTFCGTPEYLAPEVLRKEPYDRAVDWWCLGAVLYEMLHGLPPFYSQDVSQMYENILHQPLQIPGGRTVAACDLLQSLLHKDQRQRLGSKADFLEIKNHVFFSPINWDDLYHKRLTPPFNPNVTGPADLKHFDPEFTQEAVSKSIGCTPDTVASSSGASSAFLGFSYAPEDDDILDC
# [7] = target: G protein-coupled receptor kinase 3 (Homo sapiens, UniProt P35626); test: Inhibition of recombinant full length human GST-tagged GRK3 expressed in baculovirus expression system using serine/threonine-16 peptide as substrate incubated for 60 mins in presence of ATP by Z'-LYTE assay
# [8] = target: Serine/threonine-protein kinase D3 (Homo sapiens, UniProt O94806); test: Inhibition of recombinant full length human GST-tagged PKD3 expressed in baculovirus expression system using serine/threonine-17 peptide as substrate incubated for 60 mins in presence of ATP by Z'-LYTE assay
# Sequence of Serine/threonine-protein kinase D3 (O94806 whole entry, the tested form may be a part): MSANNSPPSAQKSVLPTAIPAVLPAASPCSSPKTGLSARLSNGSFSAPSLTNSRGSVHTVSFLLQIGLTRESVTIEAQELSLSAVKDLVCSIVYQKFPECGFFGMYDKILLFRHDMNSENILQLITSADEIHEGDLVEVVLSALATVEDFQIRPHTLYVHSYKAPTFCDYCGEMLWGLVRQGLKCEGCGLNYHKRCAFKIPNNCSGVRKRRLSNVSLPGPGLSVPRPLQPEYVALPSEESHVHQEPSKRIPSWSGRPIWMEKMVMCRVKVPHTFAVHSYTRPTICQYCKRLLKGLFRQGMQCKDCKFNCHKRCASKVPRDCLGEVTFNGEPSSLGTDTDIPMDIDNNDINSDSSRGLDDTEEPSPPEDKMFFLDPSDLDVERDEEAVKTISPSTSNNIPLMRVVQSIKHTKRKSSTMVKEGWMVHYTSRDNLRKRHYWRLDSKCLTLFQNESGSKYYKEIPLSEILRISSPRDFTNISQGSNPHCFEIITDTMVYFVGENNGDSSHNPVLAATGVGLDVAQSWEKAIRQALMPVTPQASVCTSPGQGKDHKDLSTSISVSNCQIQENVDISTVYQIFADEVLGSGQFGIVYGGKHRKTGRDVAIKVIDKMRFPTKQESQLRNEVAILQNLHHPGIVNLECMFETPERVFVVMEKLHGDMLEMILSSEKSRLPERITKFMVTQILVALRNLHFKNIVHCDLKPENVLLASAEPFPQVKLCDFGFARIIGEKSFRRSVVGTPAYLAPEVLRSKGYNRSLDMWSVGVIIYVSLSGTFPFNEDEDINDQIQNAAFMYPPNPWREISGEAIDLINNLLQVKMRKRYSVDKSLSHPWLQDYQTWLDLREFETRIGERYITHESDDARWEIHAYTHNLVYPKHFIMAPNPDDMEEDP
# [9] = target: Tyrosine-protein kinase ABL1 (Homo sapiens, UniProt P00519, Y253F); test: Inhibition of recombinant full length human His-tagged ABL1 Y253F mutant cytoplasmic domain expressed in baculovirus expression system using tyrosine-2 peptide as substrate incubated for 60 mins in presence of ATP by Z'-LYTE assay
# [10] = target: 3-phosphoinositide-dependent protein kinase 1 (Homo sapiens, UniProt O15530); test: Inhibition of full length recombinant His-tagged human PDK1 expressed in baculovirus expression system using Ser/Thr 07 as substrate after 1 hr in presence of ATP by Z'LYTE assay
# Sequence of 3-phosphoinositide-dependent protein kinase 1 (O15530 whole entry, canonical isoform): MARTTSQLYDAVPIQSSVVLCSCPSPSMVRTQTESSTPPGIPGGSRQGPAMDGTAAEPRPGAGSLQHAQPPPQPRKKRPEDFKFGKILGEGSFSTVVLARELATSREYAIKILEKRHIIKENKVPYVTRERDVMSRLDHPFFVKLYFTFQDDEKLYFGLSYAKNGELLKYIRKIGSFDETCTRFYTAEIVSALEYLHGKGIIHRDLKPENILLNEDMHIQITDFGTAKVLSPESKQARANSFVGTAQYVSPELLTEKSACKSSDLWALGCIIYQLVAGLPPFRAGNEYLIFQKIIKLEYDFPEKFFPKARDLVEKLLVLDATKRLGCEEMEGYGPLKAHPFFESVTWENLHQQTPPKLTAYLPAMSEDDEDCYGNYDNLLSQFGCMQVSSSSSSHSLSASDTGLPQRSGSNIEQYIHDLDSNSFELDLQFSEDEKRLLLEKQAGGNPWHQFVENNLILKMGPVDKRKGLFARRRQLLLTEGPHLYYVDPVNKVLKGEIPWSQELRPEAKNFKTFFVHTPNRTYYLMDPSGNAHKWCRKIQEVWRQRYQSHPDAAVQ
# [11] = target: T1, Phosphatidylinositol 4,5-bisphosphate 3-kinase catalytic subunit delta isoform (Homo sapiens, UniProt O00329); test: Inhibition of PI3K delta in human whole blood assessed as inhibition of anti-IgE-stimulated CysLt release in basophils preincubated for 30 mins followed by anti-IgE stimulation and measured after 20 mins; format: tissue-based
# T1 sequence (O00329 whole entry): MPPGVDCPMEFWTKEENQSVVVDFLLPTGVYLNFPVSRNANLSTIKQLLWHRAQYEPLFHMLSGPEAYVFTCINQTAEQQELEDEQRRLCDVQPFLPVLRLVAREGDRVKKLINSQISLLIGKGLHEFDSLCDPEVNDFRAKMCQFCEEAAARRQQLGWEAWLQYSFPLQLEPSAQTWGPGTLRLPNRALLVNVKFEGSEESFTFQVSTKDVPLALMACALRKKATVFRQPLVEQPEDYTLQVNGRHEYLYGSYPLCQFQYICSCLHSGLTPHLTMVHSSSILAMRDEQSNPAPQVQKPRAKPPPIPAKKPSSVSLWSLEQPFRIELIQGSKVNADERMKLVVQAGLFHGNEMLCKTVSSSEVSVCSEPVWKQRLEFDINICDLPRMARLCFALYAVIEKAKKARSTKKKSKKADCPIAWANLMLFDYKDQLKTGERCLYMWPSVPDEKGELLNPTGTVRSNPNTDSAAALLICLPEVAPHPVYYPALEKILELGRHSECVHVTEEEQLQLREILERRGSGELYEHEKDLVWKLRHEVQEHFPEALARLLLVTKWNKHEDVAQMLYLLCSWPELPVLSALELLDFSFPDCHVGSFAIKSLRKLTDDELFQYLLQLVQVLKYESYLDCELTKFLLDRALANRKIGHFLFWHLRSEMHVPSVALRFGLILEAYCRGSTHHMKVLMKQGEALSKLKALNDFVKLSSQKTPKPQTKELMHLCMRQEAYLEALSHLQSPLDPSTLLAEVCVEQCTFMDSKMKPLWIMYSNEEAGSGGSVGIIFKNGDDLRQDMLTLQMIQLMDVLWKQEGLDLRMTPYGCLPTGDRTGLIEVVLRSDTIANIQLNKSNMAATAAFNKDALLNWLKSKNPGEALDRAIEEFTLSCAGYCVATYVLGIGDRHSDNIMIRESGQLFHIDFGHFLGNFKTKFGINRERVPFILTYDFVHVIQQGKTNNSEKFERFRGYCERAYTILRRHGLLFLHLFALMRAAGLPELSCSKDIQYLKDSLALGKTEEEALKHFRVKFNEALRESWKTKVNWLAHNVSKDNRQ
# [12] = Oral bioavailability in rat at 0.5 mg/kg; format: ADME, organism-based; conditions: in vivo
# [13] = target: Testis-specific serine/threonine-protein kinase 2 (Homo sapiens, UniProt Q96PF2); test: Inhibition of recombinant full length human His-tagged STK22B expressed in baculovirus expression system using serine/threonine-04 peptide as substrate incubated for 60 mins in presence of ATP by Z'-LYTE assay
# [14] = target: Estrogen receptor (Homo sapiens) (UniProt P03372); test: Displacement of [3H]estradiol from recombinant full length human recombinant ERalpha receptor expressed in Sf9 insect cells at 10 uMmeasured after 120 mins by radiometric scintillation analysis relative to control; conditions: 10 uM
# Sequence of Estrogen receptor (Homo sapiens) (P03372 whole entry): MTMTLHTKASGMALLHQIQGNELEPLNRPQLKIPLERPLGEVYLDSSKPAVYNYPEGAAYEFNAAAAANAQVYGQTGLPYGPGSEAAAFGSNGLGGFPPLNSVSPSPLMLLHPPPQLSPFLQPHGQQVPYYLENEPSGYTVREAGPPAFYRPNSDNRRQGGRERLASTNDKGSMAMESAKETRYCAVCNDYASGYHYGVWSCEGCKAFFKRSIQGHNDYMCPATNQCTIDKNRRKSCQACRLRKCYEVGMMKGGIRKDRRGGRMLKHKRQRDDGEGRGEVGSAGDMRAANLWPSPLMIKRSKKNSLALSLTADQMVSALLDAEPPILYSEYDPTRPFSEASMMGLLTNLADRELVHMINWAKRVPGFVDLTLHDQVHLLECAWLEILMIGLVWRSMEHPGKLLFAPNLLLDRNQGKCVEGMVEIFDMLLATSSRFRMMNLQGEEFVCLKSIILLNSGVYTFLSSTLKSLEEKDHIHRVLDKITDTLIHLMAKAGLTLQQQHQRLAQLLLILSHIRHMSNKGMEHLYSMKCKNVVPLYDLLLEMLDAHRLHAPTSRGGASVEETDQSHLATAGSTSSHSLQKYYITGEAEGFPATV
# [15] = target: Tyrosine-protein kinase Lyn (Homo sapiens, UniProt P07948); test: Inhibition of recombinant full length human GST-tagged LYN-A expressed in insect cells using tyrosine-2 peptide as substrate incubated for 60 mins in presence of ATP by Z'-LYTE assay
# [16] = target: Receptor-type tyrosine-protein kinase FLT3 (Homo sapiens, UniProt P36888); test: Inhibition of recombinant human His-tagged FLT3 cytoplasmic domain (564 to 958 residues) expressed in baculovirus expression system using tyrosine-2 peptide as substrate incubated for 60 mins in presence of ATP by Z'-LYTE assay
structure (smiles),measurement,setting,value
C[C@@H]1C[C@H]1C(=O)N1CCN(c2cnc(C#N)c(-c3cnn(C)c3)n2)C[C@H]1C,inhibition,Caspase-9 (Homo sapiens),2%
same,IC50,[1],> 100 µM
same,IC50,[2],> 100 µM
same,IC50,[3],> 100 µM
same,IC50,[4],> 100 µM
same,IC50,[5],> 100 µM
same,IC50,[6],> 100 µM
same,IC50,[7],> 100 µM
same,IC50,[8],> 100 µM
same,IC50,[9],> 100 µM
same,IC50,[10],> 100 µM
same,IC50,[11],0.065 µM
same,bioavailability,[12],79%
same,IC50,[13],> 100 µM
same,inhibition,[14],0%
same,IC50,[15],> 100 µM
same,IC50,[16],> 100 µM
